Source: patent US20230181514A1, “NEW TRIGLYCERIDE OBTAINED FROM A MACROCYBE TITANS EXTRACT, CLINICAL APPLICATIONS AND PRODUCTION METHOD” (BIO TECH STARE GLOBAL S.R.L., priority 2020, published 2023)
“Also recorded” adds a separate entry of the source.

Key:
[1] = tested on: NL20 (immortalized, non-tumor line, pulmonary epithelium); test: Cytotoxicity test (Cell Titer, 5 days), non-tumor line; format: cell-based, human
Experimental: (§1) Extracts (aqueous, ethyl, acidic) were obtained from 9 macrofungi species collected by INBio in the Costa Rican rainforests. All of them were subjected to a cytotoxicity test with two human cell lines: A549 (lung adenocarcinoma) and NL20 (immortalized, non-tumor line, obtained from the pulmonary epithelium). Cells were plated in 96-well plates at densities of 2,000 (A549) or 10,000 (NL20) cells per well. Once the cells were stuck to the bottom, serial concentrations of each extract were added and incubated at 37° C. for 5 days under a humidified atmosphere (85% relative humidity) and containing 5% CO2. Eight repeats (wells) were studied for each concentration. At the end of the incubation process, 20 μl of Cell Titer (Promega) were added per well and left for 4 h to allow the formation of the colored formazan salts. Colorimetric quantification was performed with a plate reader (POLARstar Omega) using a wavelength of 490 nm, following already published protocols (Coderch C, Diaz de C M, Zapico J M, Pelaez R, Larrayoz I M, Ramos A, et al. In silico identification and in vivo characterization of small molecule therapeutic hypothermia mimetics. Bioorg Med Chem 2017; 25:6597-604). […]

[2] = tested on: A549 (lung adenocarcinoma); test: Cytotoxicity test (Cell Titer, 5 days), tumor line; format: cell-based, human
Experimental: as §1

A549 xenograft tumors = test: Human lung cancer xenografts in immunosuppressed mice; format: in vivo, mice (NOD scid gamma)
Experimental: In this case, 20 male mice of the NOD scid gamma strain (NSG, Stock No. 005557, The Jackson Laboratory) were used. All of them were injected subcutaneously with 10 million A549 cells and left for 2 weeks until the tumors became measurable. Two groups of 10 mice each were randomized and marked as control group (diamonds) and TG10-treated group (squares). From this point, intratumor injections with 100 μl of PBS (control group) or 0.1 mg/ml of TG10 in PBS (treated group) were applied 3 times per week. Before each injection, tumor volumes were measured with a caliper. The mice were euthanized when the tumors reached a size incompatible with animal welfare.

[3] = tested on: actin cytoskeleton of A549 cells; test: Modulation of the actin cytoskeleton (Bodipy-falacidine staining, confocal), tumor cells; format: cell-based, human; settings: 0.03 mg/ml, 24-hour treatment
Excerpt: (§2) Many antitumor substances exert their effects by modulating the cytoskeleton of tumor cells, either acting on microtubules or on actin filaments (Zhang S, Menche D, Zahler S, Vollmer A M, Liebl J, Forster F. In vitro anti-cancer effects of the actin-binding natural compound rhizopodin. Pharmazie 2015; 70:610-5.). To check whether compound TG10 has a similar mechanism of action as other antitumor drugs, tumor cells (A549) and non-tumor cells (NL20) were subjected to a 24-hour treatment with 0.03 mg/ml TG10. At the end of this time, the cells were fixed with 10% formaldehyde for 10 min, permeabilized with 0.1% Triton X-100 for 10 min and exposed to 1: 200 Bodipy-falacidine and 1: 1000 DAPI (Molecular Probes) for 1 h. The images were obtained with a confocal laser microscope (TCS SP5, Leica).

[4] = tested on: actin cytoskeleton of NL20 cells; test: Modulation of the actin cytoskeleton (Bodipy-falacidine staining, confocal), non-tumor cells; format: cell-based, human; settings: 0.03 mg/ml, 24-hour treatment
Excerpt: as §2

Molecule	Toxicity to normal cells (NL20) [1]	Antitumor activity against A549 (toxicity test of synthesized TGs) [2]	Tumor growth versus control (in words) (A549 xenograft tumors; intratumor 0.1 mg/ml in PBS, 3 times per week, FIG. 5)	Average tumor volume at the end of the experiment (A549 xenograft tumors; intratumor 100 μl of 0.1 mg/ml in PBS, 3 times per week from day 15, end day 48, control 2900 mm^3, p<0.05) [mm^3]	Effect on actin fibers of A549 cells [3]	Effect on actin fibers of NL20 cells [4]
2S-TG (C18:2, 9z, 12z; C16:0; C18:1, 9z) [TG9]	no effect on cells	no effect on cells	–	–	–	–
CCCCC/C=C\C/C=C\CCCCCCCC(=O)OC[C@@H](COC(=O)CCCCCCC/C=C\CCCCCCCC)OC(=O)CCCCCCCCCCCCCCC [TG10, 2R-TG (C18:2, 9z, 12z; C16:0; C18:1, 9z)]	not toxic to normal cells	exhibited antitumor activity; also recorded: TG10 (active)	continued to grow, but at a slower rate	1600	completely lost the polymerized actin fibers	maintained the filamentous structure of actin
